Results as given in patent US20210369853A1, “TARGETED PROTEASE DEGRADATION PLATFORM” (EUBULUS BIOTHERAPEUTICS INC., priority 2018, published 2021).
Like-named read-outs stand apart in the source and are kept apart here.

Tests used:
Type in all cases: cell-based
[1] = test system: PBMC; experiment: Cell proliferation experiment (EC50), PBMC
[2] = test system: HUVEC; experiment: Cell proliferation experiment (EC50), HUVEC; conditions: Homo sapiens
[3] = test system: Human Monocytic Leukemia MV4-11; experiment: Cell proliferation experiment (Alarm blue, 72 h, EC50); conditions: Homo sapiens
In short: (§1)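 Log-phase cells were seeded in 96-well plates, then exposed to test compound in a 5-fold dilution series, in duplicate, for 72 h. Fluorescence read by Alarm blue. EC50 fitted with a four-parameter (Min, Max, Slope) equation.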

[4] = test system: Human Colon Cancer HCT-116; experiment: as above; conditions: HCT116 cells
In short: as §1

[5] = test system: Human Acute Myelomonocytic Leukemia HL-60; experiment: as above; conditions: HL-60 cells
In short: as §1

[6] = target: T1, PLK1 (Homo sapiens, UniProt P53350); experiment: Western blot, protein degradation (DC50)
T1 construct: endogenous in cells
In short: (§2)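 Cells treated with compound, lysed in RIPA and resolved by SDS-PAGE (4%-12%); PVDF blots probed with primary antibody overnight at 4° C, then secondary antibody, and developed with ECL. Band intensities quantified by densitometry to give degradation.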

[7] = test system: HUVEC; experiment: Cell proliferation experiment (EC50), HUVEC; conditions: Homo sapiens; remark: listed apart in the source
[8] = test system: PBMC; experiment: Cell proliferation experiment (EC50), PBMC; remark: listed apart in the source
[9] = test system: Daudi; experiment: Cell proliferation experiment (EC50), Daudi; conditions: Homo sapiens; Daudi cells
[10] = test system: Human Glioma Cells U-87 MG; experiment: Cell proliferation experiment (Alarm blue, 72 h, EC50); conditions: U-87MG cells
In short: as §1

[11] = test system: Human Colon Cancer HT-29; experiment: as above; conditions: HT-29 cells
In short: as §1

[12] = test system: Human Small Cell Lung Cancer NCI-H82; experiment: as above; conditions: Homo sapiens, NCI-H82; NCIH82 cells
In short: as §1

[13] = target: T2, BRD4 (Homo sapiens, UniProt O60885); experiment: Western blot, protein degradation (DC50)
T2 construct: endogenous in cells
In short: as §2

[14] = test system: Human Breast Cancer MDA-MB-231; experiment: Cell proliferation experiment (Alarm blue, 72 h, EC50); conditions: MDA-MB-231 cells
In short: as §1

[15] = test system: Human Monocytic Leukemia THP-1; experiment: as above; conditions: THP-1 cells
In short: as §1

[16] = test system: Human cervical adenocarcinoma cells Hela; experiment: as above
In short: as §1

[17] = test system: PBMC; experiment: Cell proliferation experiment (EC50), PBMC; remark: listed apart in the source
[18] = test system: A549; experiment: Cell proliferation experiment (EC50), A549; conditions: Homo sapiens; A549 cells
[19] = test system: U937; experiment: Cell proliferation experiment (EC50), U937; conditions: Homo sapiens, U-937; U937 cells
[20] = test system: Daudi; experiment: Cell proliferation experiment (EC50), Daudi; conditions: Homo sapiens; Daudi cells; remark: listed apart in the source
[21] = test system: Human Acute Lymphoblastic Leukemia Cells MOLT-4; experiment: Cell proliferation experiment (Alarm blue, 72 h, EC50); conditions: MOL4-4 cells
In short: as §1

[22] = test system: Human Ovarian Cancer SK-OV-3; experiment: as above; conditions: SKO3 cells
In short: as §1

[23] = test system: HUVEC; experiment: Cell proliferation experiment (EC50), HUVEC; conditions: Homo sapiens; remark: listed apart in the source
[24] = test system: HUVEC; experiment: Cell proliferation experiment (EC50), HUVEC; conditions: Homo sapiens; remark: listed apart in the source
[25] = test system: PBMC; experiment: Cell proliferation experiment (EC50), PBMC; remark: listed apart in the source
[26] = test system: U937; experiment: Cell proliferation experiment (EC50), U937; conditions: Homo sapiens, U-937; U937 cells; remark: listed apart in the source
[27] = test system: A549; experiment: Cell proliferation experiment (EC50), A549; conditions: Homo sapiens; A549 cells; remark: listed apart in the source
[28] = test system: Daudi; experiment: Cell proliferation experiment (EC50), Daudi; conditions: Homo sapiens; Daudi cells; remark: listed apart in the source
[29] = test system: PBMC; experiment: Cell proliferation experiment (EC50), PBMC; remark: listed apart in the source
[30] = test system: HUVEC; experiment: Cell proliferation experiment (EC50), HUVEC
[31] = 6 h, western blot, read-out: PLK1 DC50 (6 h)
[32] = 24 h, western blot, read-out: PLK1 DC50 (24 h)
[33] = 6 h, western blot, read-out: BRD4 DC50 (6 h)
[34] = 24 h, western blot, read-out: BRD4 DC50 (24 h)
[35] = 6 h, read-out: PLK1 DC50 (nM) (6 h)
[36] = 24 h, read-out: PLK1 DC50 (nM) (24 h)
[37] = 6 h, read-out: BRD4 DC50 (nM) (6 h)
[38] = 24 h, read-out: BRD4 DC50 (nM) (24 h)

T1 sequence (P53350 whole entry): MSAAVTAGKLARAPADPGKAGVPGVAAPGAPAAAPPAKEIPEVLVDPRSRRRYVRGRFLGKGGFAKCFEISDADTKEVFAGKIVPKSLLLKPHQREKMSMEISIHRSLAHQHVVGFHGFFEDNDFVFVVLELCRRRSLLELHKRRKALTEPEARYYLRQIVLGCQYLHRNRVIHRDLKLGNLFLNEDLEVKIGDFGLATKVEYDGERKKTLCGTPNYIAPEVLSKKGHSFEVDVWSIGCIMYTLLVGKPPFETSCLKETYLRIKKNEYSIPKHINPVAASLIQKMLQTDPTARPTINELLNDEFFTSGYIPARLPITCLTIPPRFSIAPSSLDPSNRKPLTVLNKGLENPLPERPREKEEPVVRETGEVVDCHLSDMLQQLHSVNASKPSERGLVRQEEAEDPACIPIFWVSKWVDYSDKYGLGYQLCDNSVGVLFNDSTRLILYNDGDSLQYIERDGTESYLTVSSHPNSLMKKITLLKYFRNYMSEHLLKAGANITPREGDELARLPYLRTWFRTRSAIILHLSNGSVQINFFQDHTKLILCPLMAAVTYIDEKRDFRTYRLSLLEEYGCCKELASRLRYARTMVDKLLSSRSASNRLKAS

EC50 ([3]; MV4-11, MV4;11 cells) [nM] | EC50 ([4]; Homo sapiens, HCT-116) [nM] | EC50 [5] [nM] | DC50 [6, 35] [nM] | Structure (SMILES) | EC50 ([10]; Homo sapiens) [nM] | EC50 ([11]; Homo sapiens) [nM] | EC50 [12] [nM] | EC50 ([14]; Homo sapiens) [nM] | EC50 ([3]; MV4;11 cells) [nM] | EC50 [15] [nM] | EC50 ([16]; Homo sapiens) [nM] | EC50 ([22]; Homo sapiens, SK-OV-3) [nM] | further results
10 to 100 | > 1000 | > 1000 | – | O=C1CCC(N2Cc3c(NC(=O)CCOCCOCCOCCNC(=O)c4ccc(Nc5ncc6c(n5)-c5ccc(Cl)cc5C(c5c(F)cccc5F)=NC6)cc4)cccc3C2=O)C(=O)N1 (stereo not shown) [UB-180535] | – | – | – | – | – | – | – | – | EC50 [1]: > 1000 nM; EC50 [2]: > 1000 nM
10 to 100 | > 1000 | 100 to 1000 | – | O=C1CCC(N2Cc3c(NC(=O)CCOCCOCCOCCNC(=O)[C@]4(Cc5cccc(Nc6nccs6)n5)CC[C@@H](Oc5cccc(Cl)c5F)CC4)cccc3C2=O)C(=O)N1 (stereo partly shown) [UB-180581] | – | – | – | – | – | – | – | – | DC50 ([6]; 6 h, read-out: PLK1 DC50 (6 h)): < 10 nM; EC50 [7]: > 1000 nM; EC50 [8]: > 1000 nM
10 to 100 | – | – | – | CC[C@@H]1C(=O)N(C)c2cnc(Nc3ccc(C(=O)NCCOCCOCCOCCC(=O)Nc4cccc5c4CN(C4CCC(=O)NC4=O)C5=O)cc3OC)nc2N1C1CCCC1 (stereo partly shown) [UB-180605] | 100 to 1000 | 100 to 1000 | 100 to 1000 | – | – | – | – | – | EC50 [9]: 100 to 1000 nM
10 to 100 | – | – | 10 to 100 | CC[C@@H]1C(=O)N(C)c2cnc(Nc3ccc(C(=O)NCc4cn(CCNCCC(=O)Nc5cccc6c5CN(C5CCC(=O)NC5=O)C6=O)nn4)cc3OC)nc2N1Cc1ccc(Cl)s1 (stereo partly shown) [UB-180714] | – | – | – | – | – | – | – | – | DC50 [6, 36]: < 10 nM; DC50 [13, 37]: < 10 nM; DC50 [13, 38]: < 10 nM; EC50 [24]: 100 to 1000 nM; EC50 [25]: 100 to 1000 nM
10 to 100 | 100 to 1000 | 100 to 1000 | < 10 | CC[C@@H]1C(=O)N(C)c2cnc(Nc3ccc(C(=O)NC4CCN(CCOCCNCC(=O)Nc5cccc6c5CN(C5CCC(=O)NC5=O)C6=O)CC4)cc3OC)nc2N1Cc1ccc(Cl)s1 (stereo partly shown) [UB-180725] | 100 to 1000 | 100 to 1000 | 100 to 1000 | 100 to 1000 | – | 100 to 1000 | 100 to 1000 | 100 to 1000 | DC50 [6, 36]: < 10 nM; DC50 [13, 37]: < 10 nM; DC50 [13, 38]: < 10 nM; EC50 [26]: 100 to 1000 nM; EC50 [27]: 100 to 1000 nM; EC50 [28]: 100 to 1000 nM
10 to 100 | 100 to 1000 | > 1000 | < 10 | O=C1CCC(N2Cc3c(NC(=O)CNCCOCCOCCOCCNC(=O)[C@]4(Cc5cccc(Nc6nccs6)n5)CC[C@@H](Oc5cccc(Cl)c5F)CC4)cccc3C2=O)C(=O)N1 (stereo partly shown) [UB-180730] | – | – | – | – | – | – | – | – | EC50 [24]: > 1000 nM; EC50 [25]: > 1000 nM
– | – | – | – | CC[C@@H]1C(=O)N(C)c2cnc(Nc3ccc(C(=O)NC4CCN(CCOCCN(CC(=O)Nc5cccc6c5CN(C5CCC(=O)NC5=O)C6=O)C(=O)OC(C)C(C)SSC[C@@H](NC(=O)CCOCCOCCOCCOCCOCCOCCNC(=O)CC[C@H](NC(=O)c5ccc(NCc6cnc7nc(N)[nH]c(=O)c7n6)cc5)C(=O)O)C(=O)O)CC4)cc3OC)nc2N1C1CCCC1 (stereo partly shown) [UB-180829] | – | – | – | – | – | – | – | – | EC50 [29]: > 1000 nM; EC50 [30]: > 1000 nM; EC50 [14]: 100 to 1000 nM; EC50 [10]: 100 to 1000 nM; EC50 [11]: 100 to 1000 nM; EC50 [4]: 100 to 1000 nM; EC50 [22]: 100 to 1000 nM; EC50 [16]: 100 to 1000 nM

Structure (SMILES) | EC50 ([3]; MV4-11, MV4;11 cells) [nM] | EC50 ([4]; Homo sapiens, HCT-116) [nM] | EC50 [5] [nM] | DC50 [6, 35] [nM] | EC50 ([10]; Homo sapiens) [nM] | EC50 ([11]; Homo sapiens) [nM] | EC50 [12] [nM] | EC50 ([14]; Homo sapiens) [nM] | EC50 ([3]; MV4;11 cells) [nM] | EC50 [15] [nM] | EC50 ([16]; Homo sapiens) [nM] | EC50 ([22]; Homo sapiens, SK-OV-3) [nM] | further results
CC[C@@H]1C(=O)N(C)c2cnc(Nc3ccc(C(=O)NCCOCCOCCOCCNCCC(=O)Nc4cccc5c4CN(C4CCC(=O)NC4=O)C5=O)cc3OC)nc2N1C1CCCC1 (stereo partly shown) [UB-180633] | – | > 1000 | 100 to 1000 | – | 100 to 1000 | 100 to 1000 | > 1000 | 100 to 1000 | 10 to 100 | 100 to 1000 | 100 to 1000 | – | DC50 ([6]; 6 h, read-out: PLK1 DC50 (6 h)): 100 to 1000 nM; DC50 ([6]; 24 h, read-out: PLK1 DC50 (24 h)): 10 to 100 nM; DC50 ([13]; 6 h, read-out: BRD4 DC50 (6 h)): < 10 nM; DC50 ([13]; 24 h, read-out: BRD4 DC50 (24 h)): < 10 nM; EC50 [7]: > 1000 nM; EC50 [8]: > 1000 nM
CC[C@@H]1CN(C)c2cnc(Nc3ccc(C(=O)NCCOCCOCCOCCNCCC(=O)Nc4cccc5c4CN(C4CCC(=O)NC4=O)C5=O)cc3OC)nc2N1Cc1ccc(Cl)s1 (stereo partly shown) [UB-180701] | – | 100 to 1000 | 100 to 1000 | – | 100 to 1000 | 100 to 1000 | 100 to 1000 | 100 to 1000 | < 10 | 100 to 1000 | 100 to 1000 | 100 to 1000 | DC50 [6, 31]: 10 to 100 nM; DC50 [6, 32]: < 10 nM; DC50 [13, 33]: < 10 nM; DC50 [13, 34]: < 10 nM; EC50 [17]: > 1000 nM; EC50 [18]: 100 to 1000 nM; EC50 [19]: 100 to 1000 nM; EC50 [20]: 100 to 1000 nM; EC50 [21]: 100 to 1000 nM; EC50 [23]: > 1000 nM
CC[C@@H]1C(=O)N(C)c2cnc(Nc3ccc(C(=O)NC4CCN(CCNCCOCC(=O)Nc5cccc6c5CN(C5CCC(=O)NC5=O)C6=O)CC4)cc3OC)nc2N1Cc1ccc(Cl)s1 (stereo partly shown) [UB-180711] | – | 100 to 1000 | 100 to 1000 | – | 100 to 1000 | 100 to 1000 | 100 to 1000 | 100 to 1000 | < 10 | 100 to 1000 | 100 to 1000 | 100 to 1000 | DC50 [6, 31]: 10 to 100 nM; DC50 [6, 32]: < 10 nM; DC50 [13, 33]: < 10 nM; DC50 [13, 34]: < 10 nM; EC50 [17]: 100 to 1000 nM; EC50 [18]: 100 to 1000 nM; EC50 [19]: 100 to 1000 nM; EC50 [20]: 100 to 1000 nM; EC50 [21]: 100 to 1000 nM; EC50 [23]: 100 to 1000 nM
